Data from patent US7435837B2, “Dihydrobenzofuranyl alkanamine derivatives and methods for using same” (Wyeth, priority 2003, dated 2008).
Like-named read-outs stand apart in the source and are kept apart here.

Biological target: T1, human 5-hydroxytryptamine-2C (h5-HT2C) receptor (Homo sapiens, UniProt P28335)
T1 construct: expressed in transfected cells; host or cells: CHO (Chinese Hamster Ovary) cells; membranes
T1 sequence (P28335 33-458): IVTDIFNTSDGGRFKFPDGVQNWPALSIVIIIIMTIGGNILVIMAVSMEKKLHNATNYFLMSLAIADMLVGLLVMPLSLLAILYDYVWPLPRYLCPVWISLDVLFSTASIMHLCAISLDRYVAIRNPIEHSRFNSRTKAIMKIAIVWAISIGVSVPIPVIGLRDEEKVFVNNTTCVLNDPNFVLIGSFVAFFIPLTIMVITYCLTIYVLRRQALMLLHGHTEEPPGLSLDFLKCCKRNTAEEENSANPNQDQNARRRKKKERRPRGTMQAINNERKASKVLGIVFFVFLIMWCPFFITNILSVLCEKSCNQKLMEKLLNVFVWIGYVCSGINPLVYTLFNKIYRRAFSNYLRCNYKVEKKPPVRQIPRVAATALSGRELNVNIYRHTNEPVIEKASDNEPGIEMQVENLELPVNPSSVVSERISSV
Assay: [125I]DOI binding to membranes of CHO cells expressing the human 5-HT2C receptor
Settings: for Ki: [125I]DOI radioligand

[1] = CHO cell membranes, room temperature 60 min, read-out: 5-HT2C Affinity Ki

| SMILES | Ki [1] | also measured |
| --- | --- | --- |
| CNCC1Cc2cc(-c3cccc(Cl)c3)cc(F)c2O1 (racemic) [Example 534, (±)-{7-fluoro-5-[3-chlorophenyl]-2,3-dihydro-1-benzofuran-2-yl}methyl)methylamine] | 1050 nM | – |
| CNCC1Cc2cc(C(F)(F)F)cc(-c3cccc(C)c3)c2O1 (racemic) [Example 519, (±)-N-methyl-1-[7-(3-methylphenyl)-5-(trifluoromethyl)-2,3-dihydro-1-benzofuran-2-yl]methanamine] | 488 nM | – |
| NCC1Cc2cc(C(F)(F)F)cc(-c3cccc(Cl)c3Cl)c2O1 (racemic) [Example 330, (±)-{[7-(2,3-dichlorophenyl)-5-(trifluoromethyl)-2,3-dihydro-1-benzofuran-2-yl]methyl}amine] | 88 nM | – |
| NCC1Cc2cc(-c3cccc(C(F)(F)F)c3)cc(F)c2O1 (racemic) [Example 383, (±)-({7-fluoro-5-[3-(trifluoromethyl)phenyl]-2,3-dihydro-1-benzofuran-2-yl}methyl)amine] | 1760 nM | – |
| COc1cc(CC(C)N)c(OC)cc1I (centres unmarked) [[^125I] DOI, reference compound] | – | Kd (saturation binding with increasing concentrations of [125I] DOI, read-out: dissociation constant, KD): 0.4 nM |
| Cc1ccc(Nc2cccc3c2OC(CN)C3)cc1C (racemic) [Example 181, (±)-N-[2-(aminomethyl)-2,3-dihydro-1-benzofuran-7-yl]-N-(3,4-dimethylphenyl)amine] | 146 nM | – |
| CNCC1Cc2cc(C(F)(F)F)cc(-c3cccc(F)c3F)c2O1 (racemic) [Example 521, (±)-N-methyl-1-[7-(2,3-difluorophenyl)-5-(trifluoromethyl)-2,3-dihydro-1-benzofuran-2-yl]methanamine] | 246 nM | – |
| NCC1Cc2cccc(CCc3ccccc3)c2O1 (racemic) [Example 120, (±)-1-[7-(2-phenylethyl)-2,3-dihydro-1-benzofuran-2-yl]methanamine] | 128 nM | – |
| NCC1Cc2cccc(-c3ccsc3)c2O1 (single isomer, unassigned; (-)) [Example 46, (−)-1-(7-thien-3-yl-2,3-dihydro-1-benzofuran-2-yl)methanamine] | 54 nM | – |
| NCC1Cc2cccc(-c3cc4ccccc4o3)c2O1 (racemic) [Example 40, (±)-1-(2′,3′-dihydro-2,7′-bi-1-benzofuran-2′-yl)methanamine] | 122 nM | – |
| COc1cccc2c1OC(CN)C2 (racemic) [Example 7, (±)-1-(7-methoxy-2,3-dihydro-1-benzofuran-2-yl)methanamine] | 160 nM | – |
| NCC1Cc2cc(-c3cccc(Cl)c3)cc(F)c2O1 (racemic) [Example 382, (±)-{[7-fluoro-5-(3-chlorophenyl)-2,3-dihydro-1-benzofuran-2-yl]methyl}amine] | 801 nM | – |
| COc1cccc(-c2cc(F)c3c(c2)CC(CN)O3)c1 (racemic) [Example 384, (±)-{[7-fluoro-5-(3-methoxyphenyl)-2,3-dihydro-1-benzofuran-2-yl]methyl}amine] | 1260 nM | – |
| COc1ccc(-c2cc(F)c3c(c2)CC(CN)O3)cc1 (racemic) [Example 389, (±)-{[7-fluoro-5-(4-methoxyphenyl)-2,3-dihydro-1-benzofuran-2-yl]methyl}amine] | 1620 nM | – |
| NCC1Cc2cc(Cl)cc(C3CCCCC3)c2O1 (racemic) [Example 11, (±)-(5-chloro-7-cyclohexyl-2,3-dihydro-1-benzofuran-2-yl)methylamine] | 106 nM | – |
| COc1ccc(Nc2cccc3c2OC(CN)C3)cc1 (racemic) [Example 176, (±)-N-[2-(aminomethyl)-2,3-dihydro-1-benzofuran-7-yl]-N-(4-methoxyphenyl)amine] | 488 nM | – |
| NCC1Cc2cc(-c3ccccc3)cc(-c3ccccc3F)c2O1 (racemic) [Example 348, (±)-{[7-(2-fluorophenyl)-5-phenyl-2,3-dihydro-1-benzofuran-2-yl]methyl}amine] | 529 nM | – |
| NCC1Cc2cc(C(F)(F)F)cc(-c3cccc(C(F)(F)F)c3)c2O1 (racemic) [Example 322, (±)-{[5-(trifluoromethyl)-7-(3-(trifluoromethyl)phenyl)-2,3-dihydro-1-benzofuran-2-yl]methyl}amine] | 427 nM | – |
| NCC1Cc2cc(F)cc(-c3cncnc3)c2O1 (racemic) [Example 210, (±)-[(5-fluoro-7-pyrimidin-5-yl-2,3-dihydro-1-benzofuran-2-yl)methyl]amine] | 36 nM | – |
| CNCC1Cc2ccc(Cl)c(-c3ccccc3Cl)c2O1 (racemic) [Example 404, (±)-{[6-chloro-7-(2-chlorophenyl)-2,3-dihydro-1-benzofuran-2-yl]methyl}methylamine] | 0.4 nM | – |
| NCC1Cc2cccc(-c3cccc(C(F)(F)F)c3)c2O1 (racemic) [Example 69, (±)-1-{7-[3-(trifluoromethyl)phenyl]-2,3-dihydro-1-benzofuran-2-yl}methanamine] | 96 nM | – |

| SMILES | Ki [1] | also measured |
| --- | --- | --- |
| N#Cc1ccc(-c2cc(C(F)(F)F)cc3c2OC(CN)C3)cc1 (racemic) [Example 340, (±)-4-[2-(aminomethyl)-5-(trifluoromethyl)-2,3-dihydro-1-benzofuran-7-yl]benzonitrile] | 88 nM | – |
| NCC1Cc2cc(-c3ccccc3)cc(-c3ccccc3Cl)c2O1 (racemic) [Example 345, (±)-{[7-(2-chlorophenyl)-5-phenyl-2,3-dihydro-1-benzofuran-2-yl]methyl}amine] | 98 nM | – |
| NCC1Cc2cc(-c3ccccc3)cc(-c3cccc(F)c3)c2O1 (racemic) [Example 349, (±)-{[7-(3-fluorophenyl)-5-phenyl-2,3-dihydro-1-benzofuran-2-yl]methyl}amine] | 760 nM | – |
| Cc1ccc(Cl)cc1-c1cc(F)cc2c1O[C@@H](CN)C2 [Example 548, {[(2R)-7-(5-chloro-2-methylphenyl)-5-fluoro-2,3-dihydro-1-benzofuran-2-yl]methyl}amine] | 2.3 nM | – |
| NCC1Cc2cc(Cl)cc(-c3ccsc3)c2O1 (single isomer, unassigned; (+)) [Example 92, (+)-(5-chloro-7-thien-3-yl-2,3-dihydro-1-benzofuran-2-yl)methylamine] | 62 nM | – |
| COc1ccccc1-c1cc(F)c2c(c1)CC(CN)O2 (racemic) [Example 379, (±)-{[7-fluoro-5-(2-methoxyphenyl)-2,3-dihydro-1-benzofuran-2-yl]methyl}amine] | 453 nM | – |
| NCC1Cc2c(cccc2-c2ccccc2C(F)(F)F)O1 (single isomer, unassigned; (-)) [Example 123, (−)-1-{4-[2-(trifluoromethyl)phenyl]-2,3-dihydro-1-benzofuran-2-yl}methanamine] | 207 nM | – |
| CSc1ccc2c(c1)C(N1CCN(C)CC1)Cc1ccccc1S2 (centres unmarked) [Methiothepin, reference compound] | – | Ki (reference compounds, 95% confidence interval in parentheses, read-out: Ki): 4.6 nM |
| CNCC1Cc2cc(-c3cccc(C)c3)cc(F)c2O1 (racemic) [Example 533, (±)-{7-fluoro-5-[3-methylphenyl]-2,3-dihydro-1-benzofuran-2-yl}methyl)methylamine] | 1520 nM | – |
| CNCC1Cc2cc(-c3ccccc3)cc(-c3ccc(C)cc3)c2O1 (racemic) [Example 513, (±)-{[7-(4-methylphenyl)-5-phenyl-2,3-dihydro-1-benzofuran-2-yl]methyl}methylamine] | 1150 nM | – |
| CCCCc1ccc(-c2cc(C(F)(F)F)cc3c2OC(CN)C3)cc1 (racemic) [Example 339, (±)-{[7-(4-butylphenyl)-5-(trifluoromethyl)-2,3-dihydro-1-benzofuran-2-yl]methyl}amine] | 328 nM | – |
| Cc1cc(C)cc(Nc2cccc3c2OC(CN)C3)c1 (racemic) [Example 192, (±)-N-[2-(aminomethyl)-2,3-dihydro-1-benzofuran-7-yl]-N-(3,5-dimethylphenyl)amine] | 142 nM | – |
| CNCC1Cc2cc(-c3ccccc3)cc(-c3ccccc3F)c2O1 (racemic) [Example 508, (±)-{[7-(2-fluorophenyl)-5-phenyl-2,3-dihydro-1-benzofuran-2-yl]methyl}methylamine] | 1800 nM | – |
| CN(C)C[C@H]1Cc2cc(F)cc(-c3c(Cl)cccc3Cl)c2O1 [Example 547, (R)-[7-(2,6-dichloro-phenyl)-5-Fluoro-2,3-dihydro-benzofuran-2-ylmethyl]dimethylamine] | 1.8 nM | – |
| NCC1Cc2cccc(Nc3cccc(C(F)(F)F)c3)c2O1 (racemic) [Example 184, (±)-N-2-(aminomethyl)-N-[3-(trifluoromethyl)phenyl]-2,3-dihydro-1-benzofuran-7-amine] | 185 nM | – |
| NCC1Cc2cccc(Nc3ccccc3)c2O1 (racemic) [Example 173, (±)-N-[2-(aminomethyl)-2,3-dihydro-1-benzofuran-7-yl]-N-phenylamine] | 326 nM | – |
| CC(C)(C)c1cccc2c1OC(CN)C2 (racemic) [Example 24, (±)-1-(7-tert-butyl-2,3-dihydro-1-benzofuran-2-yl)methanamine] | 36 nM | – |
| NCC1Cc2cccc(-c3ccccc3F)c2O1 (single isomer, unassigned; (-)) [Example 52, (−)-1-[7-(2-fluorophenyl)-2,3-dihydro-1-benzofuran-2-yl]methanamine] | 13 nM | – |
| COc1cc2c(c(C(C)(C)C)c1)OC(CN)C2 (racemic) [Example 13, (±)-(7-tert-butyl-5-methoxy-2,3-dihydro-1-benzofuran-2-yl)methylamine] | 133 nM | – |
| CNCC1Cc2cc(-c3ccccc3)cc(-c3ccc(OC)cc3)c2O1 (racemic) [Example 516, (±)-{[7-(4-methoxyphenyl)-5-phenyl-2,3-dihydro-1-benzofuran-2-yl]methyl}methylamine] | 1580 nM | – |
